Laboratory results as given in ChEMBL document CHEMBL3098037, “Evaluation of benzoic acid derivatives as sirtuin inhibitors” (Bioorg Med Chem Lett, 2014).
In brackets after ≈: the same amount, converted by molar mass. Activity calls are given as the source filed them. The calls are words filed in the database; no cut-off is given here.

Columns and labels:
[1] = molecular target: T1, NAD-dependent protein deacetylase sirtuin-2 (Homo sapiens) (UniProt Q8IXJ6); experiment: Inhibition of SIRT2 (unknown origin) at 1.6 mM by fluorescence assay
T1 sequence (whole entry): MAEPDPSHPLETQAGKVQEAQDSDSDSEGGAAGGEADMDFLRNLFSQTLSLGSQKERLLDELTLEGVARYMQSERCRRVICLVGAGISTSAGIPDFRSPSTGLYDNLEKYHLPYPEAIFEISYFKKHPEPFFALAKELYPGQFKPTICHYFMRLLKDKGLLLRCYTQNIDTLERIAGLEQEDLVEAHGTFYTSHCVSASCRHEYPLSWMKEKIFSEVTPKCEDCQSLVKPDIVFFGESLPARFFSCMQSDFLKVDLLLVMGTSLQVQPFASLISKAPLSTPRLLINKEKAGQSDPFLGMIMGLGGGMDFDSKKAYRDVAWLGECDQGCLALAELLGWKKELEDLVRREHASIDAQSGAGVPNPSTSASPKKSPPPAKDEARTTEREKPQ

[2] = molecular target: T2, NAD-dependent protein deacetylase sirtuin-1 (Homo sapiens) (UniProt Q96EB6); experiment: Inhibition of SIRT1 (unknown origin) at 1.6 mM by fluorescence assay
T2 sequence (whole entry): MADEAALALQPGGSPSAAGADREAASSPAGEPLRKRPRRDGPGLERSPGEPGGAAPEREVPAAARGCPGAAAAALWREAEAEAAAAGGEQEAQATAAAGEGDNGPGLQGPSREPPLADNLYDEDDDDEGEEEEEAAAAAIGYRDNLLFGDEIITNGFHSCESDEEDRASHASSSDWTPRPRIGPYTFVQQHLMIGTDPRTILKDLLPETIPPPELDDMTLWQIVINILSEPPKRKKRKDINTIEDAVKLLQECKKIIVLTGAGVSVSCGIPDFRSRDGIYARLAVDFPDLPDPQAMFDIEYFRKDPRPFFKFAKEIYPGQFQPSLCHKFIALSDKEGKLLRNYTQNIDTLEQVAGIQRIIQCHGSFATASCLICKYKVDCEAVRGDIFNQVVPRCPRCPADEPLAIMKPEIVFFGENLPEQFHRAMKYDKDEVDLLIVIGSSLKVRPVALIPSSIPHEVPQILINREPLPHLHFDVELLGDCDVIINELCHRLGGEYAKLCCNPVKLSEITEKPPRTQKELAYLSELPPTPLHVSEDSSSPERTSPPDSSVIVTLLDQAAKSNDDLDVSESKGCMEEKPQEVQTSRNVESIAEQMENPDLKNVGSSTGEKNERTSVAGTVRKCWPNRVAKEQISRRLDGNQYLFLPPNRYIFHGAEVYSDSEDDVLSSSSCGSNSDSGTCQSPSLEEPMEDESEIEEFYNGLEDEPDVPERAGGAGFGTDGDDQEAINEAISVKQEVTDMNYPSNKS

Saccharomyces cerevisiae [3] = experiment: Inhibition of Sir2p in yeast DMY2844 assessed as growth inhibition after 48 hrs
Saccharomyces cerevisiae [4] = experiment: Inhibition of Sir2p in yeast DMY2844 assessed as growth inhibition at 800 uM after 48 hrs
A549 = experiment: Cytotoxicity against human A549 cells; type: functional, cell-based
NCI-H460 = experiment: Cytotoxicity against human NCI-H460 cells; type: functional, cell-based
[5] = Cytotoxicity against human MIAPaCa2 cells; type: functional, cell-based; conditions: MIA PaCa-2
DU-145 = experiment: Cytotoxicity against human DU145 cells; type: functional, cell-based

| SMILES | MIC (Saccharomyces cerevisiae [3]) | inhibition (Saccharomyces cerevisiae [4]) | also measured |
| --- | --- | --- | --- |
| CC(C)(C)c1ccc(C(=O)O)cc1 | 50 µM (≈ 8.91 µg/mL) | – | inhibition [1]: 28%; inhibition [2]: 54.8% |
| CN(C)c1ccc(S(=O)(=O)O)cc1 | – | inactive | – |
| CN(C)c1ccccc1C(=O)O | – | inactive | – |
| Nc1ccc(C(=O)O)cc1 | 800 µM (≈ 110 µg/mL) | – | – |
| Cc1ccc(C(=O)O)cc1 | 800 µM (≈ 109 µg/mL) | – | – |
| CN(C)c1ccccc1 | – | inactive | – |
| O=C(O)c1ccccc1 | – | inactive | – |
| CNc1ccc(C(=O)O)cc1 | 400 µM (≈ 60.5 µg/mL) | – | – |
| CC[n+]1c(C=CC=C2N(C)c3ccccc3C2(C)C)sc2ccccc21 | – | – | IC50 (A549): 10 nM; IC50 (NCI-H460): 10 nM; IC50 [5]: 10 nM; IC50 (DU-145): 10 nM |
| CC(C)c1ccc(C(=O)O)cc1 | 200 µM (≈ 32.8 µg/mL) | – | – |
| CN(C)c1cccc(C(=O)O)c1 | – | inactive | – |
| CN(C)c1ccc(Br)cc1 | – | inactive | – |
| COC(=O)c1ccc(N(C)C)cc1 | 400 µM (≈ 71.7 µg/mL) | – | – |
| CN(C)c1ccc(C(=O)O)cc1 | 200 µM (≈ 33 µg/mL) | – | inhibition [1]: 30.3%; inhibition [2]: 25.3% |
| C[N+](C)(C)c1ccc(C(=O)[O-])cc1 | – | inactive | – |
| CN(C)c1ccc(C(N)=O)cc1 | – | inactive | – |
| CN(C)c1ccc([N+](=O)[O-])cc1 | – | inactive | – |
